Data from US10626094B2 (La Jolla Institute of Allergy & Immunology, priority 2014, dated 2020).

target: LMPTP-A (Low Molecular Weight Protein Tyrosine Phosphatase-A) enzyme (Homo sapiens (Human), UniProt P24666); test: LMPTP primary screening / LMPTP (OMFP) enzyme inhibition assay, fluorescence intensity; type: biochemical; conditions: LMPTP-A, OMFP substrate, method of Example 2; read-out: IC50
Procedure: This assay attempts to identify inhibitors of the LMPTP-A (Low Molecular Weight Protein Tyrosine Phosphatase-A) enzyme. It is run in 1536-well format and is measured via fluorescence intensity.
A listing of materials is provided: • Item, source, catalog no. • LMPTP-A Enzyme Stock Solution (4.22 mg/ml or 206.8 μM), SBMRI Protein Facility, • N/A • OMFP, Sigma, M2629-100MG • Bis-Tris pH 6.0, Fisher Sci, BP301-100 • Triton-X 100, Sigma, T9284 • DTT, Sigma, D9779 • Mol. Grade Water, Mediatech, Inc., 46-000-CM • 1536-well black High base opaque bottom plate, Nexus Biosystems, 00019120
Final assay conditions are: • 0.625 nM LMPTP-A Enzyme • 400 μM OMFP • 50 mM Bis-Tris pH 6.0 • 1 mM DTT • 0.01% Triton-X 100 • 20 μM test compound • 3% DMSO (2% from substrate and 1% from compounds) • 6 μL reaction volume • 50 minutes incubation at room temp
Assay Procedure • 1. Prepare Reagents as described in section F. Recipe. • 2. Using LabCyte Echo, transfer 60 nL from 2 mM test compound source plate into assay plate Col. 5-48 (final concentration of test compounds is 20 μM). 60 nL of DMSO should be transferred to col. 1-4 for positive and negative control wells. • 3. Spin plates at 1000 rpm for 1 minute in centrifuge. • 4. […] Using the Bioraptr, add 3 μL/well of enzyme solution to col. 3-48. • 6. Using the Bioraptr, add 3 μL/well of substrate solution to col. 1-48. • 7. Spin plates at 1000 rpm for 1 minute in centrifuge. • 8. Incubate plates in the dark at room temperature for 50 minutes. • 9. Read plates on PerkinElmer Viewlux using a FI protocol.

Chain of LMPTP-A (Low Molecular Weight Protein Tyrosine Phosphatase-A) enzyme (P24666 whole entry): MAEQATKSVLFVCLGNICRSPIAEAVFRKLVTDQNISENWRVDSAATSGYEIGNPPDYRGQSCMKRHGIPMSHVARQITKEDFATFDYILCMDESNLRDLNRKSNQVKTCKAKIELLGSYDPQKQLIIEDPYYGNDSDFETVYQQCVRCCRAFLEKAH

Row | Compound | IC50 [nM]
1 | COc1ccc(-c2cc(NCCc3ccc(F)cc3)c3ccccc3n2)cc1 [Compound G87, [2-(4-fluorophenyl)ethyl][2-(4-methoxyphenyl)(4-quinolyl)]amine] | 801 to 5000
2 | CCN(CC)C(=O)c1ccc(-c2cc(NCCCN3CCCCC3)c3ccccc3n2)cc1 [Compound I1, N,N-diethyl-4-(4-((3-(piperidin-1-yl)propyl)amino)quinolin-2-yl)benzamide] | 200 to 800
3 | c1ccc2c(NCCCN3CCCCC3)cc(-c3ccc(OC4CCCCO4)cc3)nc2c1 (centres unmarked) [Compound I1I3, [2-(4-(2H-3,4,5,6-tetrahydropyran-2-yloxy)phenyl)(4-quinolyl)](3-piperidylpropyl)amine] | 801 to 5000
4 | N#Cc1ccccc1-c1cc(Nc2cccc(CN3CCCC3)c2)c2ccccc2n1 [Compound I2, 2-(4-{[3-(pyrrolidinylmethyl)phenyl]amino}-2-quinolyl)benzenecarbonitrile] | 801 to 5000
5 | CN(C)Cc1cccc(Nc2cc(-c3ccc(C(N)=O)cc3)nc3ccccc23)c1 [Compound I4, 4-[4-({3-[(dimethylamino)methyl]phenyl}amino)-2-quinolyl]benzamide] | > 5000
6 | NC(=O)c1ccc(-c2cc(Nc3cccc(CN4CCCC4)c3)c3ccccc3n2)cc1 [Compound I5, 4-(4-{[3-(pyrrolidinylmethyl)phenyl]amino}-2-quinolyl)benzamide] | > 5000
7 | NC(=O)c1ccc(-c2cc(Nc3ccc(CN4CCCCC4)cc3)c3ccccc3n2)cc1 [Compound I6, 4-(4-{[4-(piperidylmethyl)phenyl]amino}-2-quinolyl)benzamide] | > 5000
8 | Fc1cc(Cl)ccc1-c1cc(Nc2ccc(CN3CCCCC3)cc2)c2ccccc2n1 [Compound I8, [2-(4-chloro-2-fluorophenyl)(4-quinolyl)][4-(piperidylmethyl)phenyl]amine] | 801 to 5000
9 | Fc1cc(Cl)ccc1-c1cc(Nc2cccc(CN3CCCC3)c2)c2ccccc2n1 [Compound I10] | 801 to 5000
10 | Clc1cccc(-c2cc(Nc3ccc(CN4CCCCC4)cc3)c3ccccc3n2)c1 [Compound I11, [2-(3-chlorophenyl)(4-quinolyl)][4-(piperidylmethyl)phenyl]amine] | 801 to 5000
11 | CN(C)Cc1cc(CO)cc(Nc2cc(-c3cccc(Cl)c3)nc3ccccc23)c1 [Compound I13, (5-[(dimethylamino)methyl]-3-{[2-(3-chlorophenyl)(4-quinolyl)]amino}phenyl)methan-1-ol] | 801 to 5000
12 | CN1CCCC1CCNc1cc(-c2cccc(Cl)c2)nc2ccccc12 (centres unmarked) [Compound I15, [2-(3-chlorophenyl)(4-quinolyl)][2-(1-methylpyrrolidin-2-yl)ethyl]amine] | 801 to 5000
13 | CN(C)Cc1ccc(Nc2cc(-c3cccc(Cl)c3)nc3ccccc23)cc1 [Compound I16, [(4-{[2-(3-chlorophenyl)(4-quinolyl)]amino}phenyl)methyl]dimethylamine] | 801 to 5000
14 | COc1ccc(-c2cc(Nc3ccc(CN4CCCCC4)cc3)c3ccccc3n2)cc1 [Compound I23, [2-(4-methoxyphenyl)(4-quinolyl)][4-(piperidylmethyl)phenyl]amine] | 801 to 5000
15 | COc1ccc(-c2cc(NCCC3CCCN3C)c3ccccc3n2)cc1 (centres unmarked) [Compound I24, [2-(4-methoxyphenyl)(4-quinolyl)][2-(1-methylpyrrolidin-2-yl)ethyl]amine] | 801 to 5000
16 | COc1ccc(-c2cc(Nc3cccc(N(C)C)c3)c3ccccc3n2)cc1 [Compound I25, (3-{[2-(4-methoxyphenyl)(4-quinolyl)]amino}phenyl)dimethylamine] | 801 to 5000
17 | COc1ccc(-c2cc(Nc3ccc(CN(C)C)cc3)c3ccccc3n2)cc1 [Compound I26, [(4-{[2-(4-methoxyphenyl)(4-quinolyl)]amino}phenyl)methyl]dimethylamine] | 801 to 5000
18 | COc1ccc(-c2cc(Nc3cccc(Cc4nn[nH]n4)c3)c3ccccc3n2)cc1 [Compound I27, [2-(4-methoxyphenyl)(4-quinolyl)][3-(2H-1,2,3,4-tetraazol-5-ylmethyl)phenyl]amine] | 801 to 5000
19 | COc1ccc(-c2cc(Nc3cccc(CC4CCN(S(C)(=O)=O)CC4)c3)c3ccccc3n2)cc1 [Compound I28, 4-[(3-{[2-(4-methoxyphenyl)(4-quinolyl)]amino}phenyl)methyl]-1-(methylsulfonyl)piperidine] | 801 to 5000
20 | COc1ccc(-c2cc(Nc3cccc(CC4CCN(C(C)=O)CC4)c3)c3ccccc3n2)cc1 [Compound I29, 1-acetyl-4-[(3-{[2-(4-methoxyphenyl)(4-quinolyl)]amino}phenyl)methyl]piperidine] | 200 to 800
21 | CCN1CCC(Cc2cccc(Nc3cc(-c4ccc(OC)cc4)nc4ccccc34)c2)CC1 [Compound I30, {3-[(1-ethyl(4-piperidyl))methyl]phenyl}[2-(4-methoxyphenyl)(4-quinolyl)]amine] | 200 to 800

Other lines, results leading:

Row | IC50 [nM] | Compound
22 | 801 to 5000 | NC(=O)c1ccc(-c2cc(Nc3cccc(CC4CCNCC4)c3)c3ccccc3n2)cc1 [Compound I3, 4-(4-{[3-(4-piperidylmethyl)phenyl]amino}-2-quinolyl)benzamide]
23 | 801 to 5000 | Fc1cc(Cl)ccc1-c1cc(Nc2cccc(CC3CCNCC3)c2)c2ccccc2n1 [Compound I7, [2-(4-chloro-2-fluorophenyl)(4-quinolyl)][3-(4-piperidylmethyl)phenyl]amine]
24 | 801 to 5000 | Clc1cccc(-c2cc(Nc3cccc(CN4CCCC4)c3)c3ccccc3n2)c1 [Compound I12, [2-(3-chlorophenyl)(4-quinolyl)][3-(pyrrolidinylmethyl)phenyl]amine]
25 | 801 to 5000 | CN(C)c1cccc(Nc2cc(-c3cccc(Cl)c3)nc3ccccc23)c1 [Compound I14, (3-{[2-(3-chlorophenyl)(4-quinolyl)]amino}phenyl)dimethylamine]
26 | 801 to 5000 | Clc1cccc(-c2cc(Nc3cccc(CC4CCN(Cc5ccccc5)CC4)c3)c3ccccc3n2)c1 [Compound I17, [2-(3-chlorophenyl)(4-quinolyl)](3-{[1-benzyl(4-piperidyl)]methyl}phenyl)amine]
27 | 801 to 5000 | CN1CCC(Cc2cccc(Nc3cc(-c4cccc(Cl)c4)nc4ccccc34)c2)CC1 [Compound I18, [2-(3-chlorophenyl)(4-quinolyl)]{3-[(1-methyl(4-piperidyl))methyl]phenyl}amine]
28 | 801 to 5000 | Clc1cccc(-c2cc(Nc3cccc(CC4CCNCC4)c3)c3ccccc3n2)c1 [Compound I19, [2-(3-chlorophenyl)(4-quinolyl)][3-(4-piperidylmethyl)phenyl]amine]
29 | 801 to 5000 | Clc1cccc(-c2cc(Nc3cccc(CC4CCNCC4)c3)c3ccccc3n2)c1 [Compound I20, [2-(3-chlorophenyl)(4-quinolyl)][3-(4-piperidylmethyl)phenyl]amine]
30 | 801 to 5000 | Clc1cccc(-c2cc(Nc3ccccc3CC3CCNCC3)c3ccccc3n2)c1 [Compound I21, [2-(3-chlorophenyl)(4-quinolyl)][2-(4-piperidylmethyl)phenyl]amine]
31 | 200 to 800 | CN(C)Cc1cccc(Nc2cc(-c3cccc(Cl)c3)nc3ccccc23)c1 [Compound I22, [(3-{[2-(3-chlorophenyl)(4-quinolyl)]amino}phenyl)methyl]dimethylamine]
32 | 200 to 800 | COc1ccc(-c2cc(Nc3cccc(CC4CCN(C)CC4)c3)c3ccccc3n2)cc1 [Compound I31, [2-(4-methoxyphenyl)(4-quinolyl)]{3-[(1-methyl(4-piperidyl))methyl]phenyl}amine]
